Test results as given in patent US20260193170A1 (University of Copenhagen, priority 2022, published 2026).

Molecular target: T1, human Keap1 Kelch domain (Homo sapiens, UniProt Q14145)
T1 construct: human Keap1 Kelch domain (residue 321-609, UniProt Q14145); made in house; host or cells: Escherichia coli BL21 (DE3) pLysS, pRSET A vector
Experiment: Fluorescence polarization (FP) competition assay, Cy5-Nrf2 peptide probe
Type: binding
Conditions: heterologous competition FP; Keap1 Kelch 14 nM, Cy5-Nrf2 probe 3 nM, 4% DMSO; mean ± SEM
Description: The binding affinities between the fluorescent peptide probe Cy5-Nrf2 (SEQ: Cy5-[…]-NH2) and the human Keap1 Kelch domain were determined as Kd values by saturation binding experiments, where increasing concentrations of Keap1 (0-300 nM) were added to a fixed concentration of peptide probe (3 nM). The assay was performed in a 1× HBSTET buffer (10 mM HEPES, 150 mM NaCl, 0.005% Tween20, 3 mM ethylenediaminetetraacetic acid (EDTA), 1 mM TCEP, pH=7.4) using black flat-bottom 384-well plates (Corning Life Sciences, NY), a volume of 30 μL/well, and a final DMSO concentration of 4% or 8%. The assay plate was spun down to ascertain proper mixing and removal of potential air bubbles and incubated for 10-15 min at room temperature before measuring the FP levels on a Safire2 plate reader (Tecan, Mannedorf, Switzerland). The g-factor was adjusted at each experiment so that a series of three blank wells containing probe but no Keap1 Kelch defined the baseline FP value. The Cy5-Nrf2 probe was measured at excitation/emission values of 635:670 nm. The FP values were fitted to the one-site specific binding equation: Y=Bmax×X/(Kd+X), with Bmax being the maximal FP value, X the Keap1 Kelch concentration, and Y the variable FP values. The Kd values were derived from the resulting binding saturation curve as being equal to the Keap1 Kelch concentration, where the curve is half-saturated.
The affinities between nonfluorescent small molecule Keap1 inhibitors and Keap1 Kelch were determined as Ki values in a heterologous competition FP binding assay. This was done by adding increasing concentration of test compound (2-fold serial dilutions, 12 concentrations tested per inhibition curve as duplicates) to a fixed concentration of Keap1 Kelch (14 nM) and the Cy5-Nrf2 peptide probe (3 nM) in the same HBSTET buffer and conditions as described above (final DMSO concentrations were 4%). FP values were fitted to the equation Y=Bottom+(Top−Bottom)/[1+(10^HillSlope×(log IC50−X))], where X is the logarithmic value of compound concentration. Hereby, the IC50 value was obtained, which together with the […] value and probe and Keap1 Kelch concentrations was used to calculate the theoretical competitive inhibition constant, the Ki value. 43 Ki values are shown as mean±SEM (standard error of mean) if based on two or more individual measurements.

T1 sequence (Q14145 321-609): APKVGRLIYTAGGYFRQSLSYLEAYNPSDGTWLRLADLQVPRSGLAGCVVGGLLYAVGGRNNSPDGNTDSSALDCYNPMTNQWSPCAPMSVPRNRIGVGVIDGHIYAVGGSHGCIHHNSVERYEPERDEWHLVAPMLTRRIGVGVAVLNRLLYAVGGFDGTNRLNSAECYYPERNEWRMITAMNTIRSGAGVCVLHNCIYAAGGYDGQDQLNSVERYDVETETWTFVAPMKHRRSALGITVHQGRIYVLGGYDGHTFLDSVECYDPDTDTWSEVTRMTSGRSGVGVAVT

SMILES | Ki
O=C(O)CCc1ccc2ccc(OCC(=O)NC3CCCCCC3)cc2c1 [1d, 3-(7-(2-(Cycloheptylamino)-2-oxoethoxy)naphthalen-2-yl)propanoic acid] | 6 ± 0.3 µM
Cc1cc2c(cc1C(CC(=O)O)c1ccc3ccc(OCC(=O)NC4CCCCC4)cc3c1)OC(F)(F)O2 (stereo not shown) [3r] | 0.007 ± 0.001 µM
Cc1cc2c(cc1C(CC(=O)O)c1ccc3ccc(OCC(=O)NC4C=CCCC4)cc3c1)OCO2 (stereo not shown) [4b, 3-(7-(2-(Cyclohex-2-en-1-ylamino)-2-oxoethoxy)naphthalen-2-yl)-3-(6-methylbenzo[d][1,3]dioxol-5-yl)propanoic acid] | 0.004 ± 0.001 µM
O=C(O)CC(c1ccc2ccc(OCC(=O)NC3CCCCC3)cc2c1)c1ccc2occc2c1 (stereo not shown) [3o, 3-(Benzofuran-5-yl)-3-(7-(2-(cyclohexylamino)-2-oxoethoxy)naphthalen-2-yl)propanoic acid] | 0.068 ± 0.012 µM
O=C(O)CC(c1ccc2c(c1)OCO2)c1ccc2ccc(OCC(=O)NC3CC=CCC3)cc2c1 (stereo not shown) [6a, 3-(Benzo[d][1,3]dioxol-5-yl)-3-(7-(2-(cyclohex-3-en-1-ylamino)-2-oxoethoxy)naphthalen-2-yl)propanoic acid] | 0.076 ± 0.009 µM
CN(C(=O)COc1ccc2ccc(C(CC(=O)O)c3ccc4c(c3)OCO4)cc2c1)C1CCCCCC1 (stereo not shown) [7b, 3-(benzo[d][1,3]dioxol-5-yl)-3-(7-(2-(cycloheptyl(methyl)amino)-2-oxoethoxy)naphthalen-2-yl)propanoic acid] | 0.129 ± 0.009 µM
COc1cc(C)c(C(CC(=O)O)c2ccc3ccc(OCC(=O)NC4CCCCC4)cc3c2)c(C)c1 (stereo not shown) [3c, 3-(7-(2-(cyclohexylamino)-2-oxoethoxy)naphthalen-2-yl)-3-(4-methoxy-2,6-dimethylphenyl)propanoic acid] | 0.168 ± 0.003 µM
O=C(O)CC(c1ccc2c(c1)OCO2)c1ccc2ccc(OCC(=O)N[C@@H]3C[C@@H]4CC[C@H]3C4)cc2c1 (stereo partly drawn) [6h, 3-(benzo[d][1,3]dioxol-5-yl)-3-(7-(2-(((1S,2R,4R)-bicyclo[2.2.1]heptan-2-yl)amino)-2-oxoethoxy)naphthalen-2-yl)propanoic acid] | 0.019 ± 0.003 µM
O=C(O)CC(c1ccc2c(c1)OCCO2)c1ccc2ccc(OCC(=O)NC3CCCCC3)cc2c1 (stereo not shown) [3l, 3-(7-(2-(cyclohexylamino)-2-oxoethoxy)naphthalen-2-yl)-3-(2,3-dihydrobenzo[b][1,4]dioxin-6-yl)propanoic acid] | 0.029 ± 0.001 µM
O=C(O)CC(c1cccc(Cl)c1)c1ccc2ccc(OCC(=O)NC3CCCCCC3)cc2c1 (stereo not shown) [2i, 3-(3-Chlorophenyl)-3-(7-(2-(cycloheptylamino)-2-oxoethoxy)naphthalen-2-yl)propanoic acid] | 0.054 ± 0.006 µM
Cc1cc2c(cc1C(CC(=O)O)c1ccc3ccc(OCC(=O)N[C@H]4C[C@@H]5CC[C@H]4C5)cc3c1)OCCO2 (stereo partly drawn) [5d, 3-(7-(2-(((1S,2S,4R)-bicyclo[2.2.1]heptan-2-yl)amino)-2-oxoethoxy)naphthalen-2-yl)-3-(7-methyl-2,3-dihydrobenzo[b][1,4]dioxin-6-yl)propanoic acid] | ~0.001 µM
CC(C(=O)O)C(c1ccc2c(c1)OCO2)c1ccc2ccc(OCC(=O)NC3CCCCCC3)cc2c1 (stereo not shown) [7c, 3-(benzo[d][1,3]dioxol-5-yl)-3-(7-(2-(cycloheptylamino)-2-oxoethoxy)naphthalen-2-yl)-2-methylpropanoic acid] | 0.015 ± 0.001 µM
O=C(O)CC(c1ccc2c(c1)CCO2)c1ccc2ccc(OCC(=O)NC3CCCCCC3)cc2c1 (stereo not shown) [2q, 3-(7-(2-(cycloheptylamino)-2-oxoethoxy)naphthalen-2-yl)-3-(2,3-dihydrobenzofuran-5-yl)propanoic acid] | 0.036 ± 0.003 µM
Cc1cc2c(cc1C(CC(=O)O)c1ccc3ccc(OCC(=O)NC4CCCCC4)cc3c1)OCCO2 (stereo not shown) [3q, 3-(7-(2-(cyclohexylamino)-2-oxoethoxy)naphthalen-2-yl)-3-(7-methyl-2,3-dihydrobenzo[b][1,4]dioxin-6-yl)propanoic acid] | 0.015 ± 0.001 µM
CCCC1CCCCN1C(=O)COc1ccc2ccc(C(CC(=O)O)c3ccc4c(c3)OCO4)cc2c1 (stereo not shown) [6k, 3-(benzo[d][1,3]dioxol-5-yl)-3-(7-(2-oxo-2-(2-propylpiperidin-1-yl)ethoxy)naphthalen-2-yl)propanoic acid] | 0.063 ± 0.003 µM
COc1ccc(C(CC(=O)O)c2ccc3ccc(OCC(=O)NC4CCCCCC4)cc3c2)c(C)c1 (stereo not shown) [2k, 3-(7-(2-(Cycloheptylamino)-2-oxoethoxy)naphthalen-2-yl)-3-(4-methoxy-2-methylphenyl)propanoic acid] | 0.027 ± 0.003 µM

SMILES | Ki
Cc1cc2c(cc1C(CC(=O)O)c1ccc3ccc(OCC(=O)N[C@H]4C[C@@H]5CC[C@H]4C5)cc3c1)OCO2 (stereo partly drawn) [5c, 3-(7-(2-(((1S,2S,4R)-bicyclo[2.2.1]heptan-2-yl)amino)-2-oxoethoxy)naphthalen-2-yl)-3-(6-methylbenzo[d][1,3]dioxol-5-yl)propanoic acid] | 0.007 µM
COc1ccc(C(CC(=O)O)c2ccc3ccc(OCC(=O)NC4CCCCC4)cc3c2)cc1 (stereo not shown) [3a, 3-(7-(2-(cyclohexylamino)-2-oxoethoxy)naphthalen-2-yl)-3-(4-methoxyphenyl)propanoic acid] | 0.07 ± 0.003 µM
O=C(O)CC(c1cccc(Cl)c1)c1ccc2ccc(OCC(=O)NC3C=CCCC3)cc2c1 (stereo not shown) [4j, 3-(3-chlorophenyl)-3-(7-(2-(cyclohex-2-en-1-ylamino)-2-oxoethoxy)naphthalen-2-yl)propanoic acid] | 0.206 ± 0.015 µM
O=C(O)CC(c1ccc(O)cc1)c1ccc2ccc(OCC(=O)NC3CCCCCC3)cc2c1 (stereo not shown) [2b, 3-(7-(2-(Cycloheptylamino)-2-oxoethoxy)naphthalen-2-yl)-3-(4-hydroxyphenyl)propanoic acid] | 0.181 ± 0.02 µM
CC1(C)CCC(NC(=O)COc2ccc3ccc(C(CC(=O)O)c4ccc5c(c4)OCO5)cc3c2)CC1 (stereo not shown) [6g, 3-(benzo[d][1,3]dioxol-5-yl)-3-(7-(2-((4,4-dimethylcyclohexyl)amino)-2-oxoethoxy)naphthalen-2-yl)propanoic acid] | 0.056 ± 0.007 µM
CC(C)(C(=O)O)C(c1ccc2c(c1)OCO2)c1ccc2ccc(OCC(=O)NC3CCCCCC3)cc2c1 (stereo not shown) [7d, 3-(benzo[d][1,3]dioxol-5-yl)-3-(7-(2-(cycloheptylamino)-2-oxoethoxy)naphthalen-2-yl)-2,2-dimethylpropanoic acid] | 0.003 ± 0.001 µM
CCOc1ccc(C(CC(=O)O)c2ccc3ccc(OCC(=O)NC4CCCCCC4)cc3c2)cc1 (stereo not shown) [2e, 3-(7-(2-(Cycloheptylamino)-2-oxoethoxy)naphthalen-2-yl)-3-(4-ethoxyphenyl)propanoic acid] | 0.041 ± 0.005 µM
Cc1cc2c(cc1C(CC(=O)O)c1ccc3ccc(OCC(=O)NC4CCCCCC4)cc3c1)OCO2 (stereo not shown) [2n, 3-(7-(2-(cycloheptylamino)-2-oxoethoxy)naphthalen-2-yl)-3-(6-methylbenzo[d][1,3]dioxol-5-yl)propanoic acid] | 0.008 ± 0.002 µM
O=C(O)CC(c1ccc2c(c1)CCO2)c1ccc2ccc(OCC(=O)NC3C=CCCC3)cc2c1 (stereo not shown) [4e, 3-(7-(2-(Cyclohex-2-en-1-ylamino)-2-oxoethoxy)naphthalen-2-yl)-3-(2,3-dihydrobenzofuran-5-yl)propanoic acid] | 0.027 ± 0.004 µM
CC1(C)Oc2ccc(C(CC(=O)O)c3ccc4ccc(OCC(=O)NC5CCCCC5)cc4c3)cc2O1 (stereo not shown) [3j, 3-(7-(2-(cyclohexylamino)-2-oxoethoxy)naphthalen-2-yl)-3-(2,2-dimethylbenzo[d][1,3]dioxol-5-yl)propanoic acid] | 0.14 ± 0.011 µM
O=C(O)CCc1ccc2ccc(OCC(=O)Nc3ccccc3)cc2c1 [1h, 3-(7-(2-oxo-2-(phenylamino)ethoxy)naphthalen-2-yl)propanoic acid] | 7.8 ± 0.1 µM
O=C(O)CC(c1ccc2c(c1)OCO2)c1ccc2ccc(OCC(=O)NC3CCCCCC3)nc2c1 (stereo not shown) [9b, 3-(benzo[d][1,3]dioxol-5-yl)-3-(2-(2-(cycloheptylamino)-2-oxoethoxy)quinolin-7-yl)propanoic acid] | 0.083 ± 0.037 µM
O=C(O)CC(c1ccc2c(c1)OCO2)c1cnc2ccc(OCC(=O)NC3CCCCCC3)cc2c1 (stereo not shown) [9c, 3-(benzo[d][1,3]dioxol-5-yl)-3-(6-(2-(cycloheptylamino)-2-oxoethoxy)quinolin-3-yl)propanoic acid] | 0.064 µM
O=C(O)CC(c1cccc(Cl)c1)c1ccc2ccc(OCC(=O)NC3CCCCC3)cc2c1 (stereo not shown) [3d, 3-(3-chlorophenyl)-3-(7-(2-(cyclohexylamino)-2-oxoethoxy)naphthalen-2-yl)propanoic acid] | 0.47 ± 0.047 µM
CC(Oc1ccc2ccc(C(CC(=O)O)c3ccc4c(c3)OCO4)cc2c1)C(=O)NC1CCCCCC1 (stereo not shown) [7a, 3-(Benzo[d][1,3]dioxol-5-yl)-3-(7-((1-(cycloheptylamino)-1-oxopropan-2-yl)oxy)naphthalen-2-yl)propanoic acid] | 0.153 ± 0.012 µM
